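Interpolation was linear, between the two tested concentrations surrounding the appropriate level; five concentrations were tested over 48 hours in 96-well plates. TGI denotes the concentration required for complete inhibition of growth.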
Experiments:
Experiment in all cases: NCI anticancer screen, dose series, 48 h
SNB-78 CNS = system: SNB-78 CNS
UACC-257 melanoma = system: UACC-257 melanoma
RXF-631 renal = system: RXF-631 renal
SK-MEL-5 melanoma = system: SK-MEL-5 melanoma
HOP-62 NSCLC = system: HOP-62 NSCLC
KM12 colon = system: KM12 colon
NCI-H226 lung = system: NCI-H226 lung
NCI-H460 lung = system: NCI-H460 lung
HT29 colon = system: HT29 colon
DMS 114 small cell lung = system: DMS 114 small cell lung
IGROV1 ovarian = system: IGROV1 ovarian
MALME-3M melanoma = system: MALME-3M melanoma
HCT-116 colon = system: HCT-116 colon
SK-MEL-28 melanoma = system: SK-MEL-28 melanoma
HL-60(TB) leukemia = system: HL-60(TB) leukemia
K-562 leukemia = system: K-562 leukemia
DLD-1 colon = system: DLD-1 colon
HOP-18 NSCLC = system: HOP-18 NSCLC
SK-OV-3 ovarian = system: SK-OV-3 ovarian
CAKI-1 renal = system: CAKI-1 renal
HCT-15 colon = system: HCT-15 colon
CCRF-CEM leukemia = system: CCRF-CEM leukemia
NCI-H522 lung = system: NCI-H522 lung
SF-539 CNS = system: SF-539 CNS
M14 melanoma = system: M14 melanoma
SW-620 colon = system: SW-620 colon
786-0 renal = system: 786-0 renal
SF-268 CNS = system: SF-268 CNS
LXFL 529 NSCLC = system: LXFL 529 NSCLC
U251 CNS = system: U251 CNS
SK-MEL-2 melanoma = system: SK-MEL-2 melanoma
SF-295 CNS = system: SF-295 CNS
HCC-2998 colon = system: HCC-2998 colon
M19-MEL melanoma = system: M19-MEL melanoma
NCI-H23 lung = system: NCI-H23 lung
OVCAR-3 ovarian = system: OVCAR-3 ovarian
LOX IMVI melanoma = system: LOX IMVI melanoma
DMS 273 small cell lung = system: DMS 273 small cell lung
KM20L2 colon = system: KM20L2 colon
TK-10 renal = system: TK-10 renal
OVCAR-4 ovarian = system: OVCAR-4 ovarian
OVCAR-5 ovarian = system: OVCAR-5 ovarian
XF 498 CNS = system: XF 498 CNS
UACC-62 melanoma = system: UACC-62 melanoma
SNB-19 CNS = system: SNB-19 CNS
ACHN renal = system: ACHN renal
EKVX NSCLC = system: EKVX NSCLC
OVCAR-8 ovarian = system: OVCAR-8 ovarian
HOP-92 NSCLC = system: HOP-92 NSCLC
RXF 393 renal = system: RXF 393 renal
A498 renal = system: A498 renal
UO-31 renal = system: UO-31 renal
SR leukemia = system: SR leukemia
SN12C renal = system: SN12C renal
MOLT-4 leukemia = system: MOLT-4 leukemia
RPMI-8226 leukemia = system: RPMI-8226 leukemia
SNB-75 CNS = system: SNB-75 CNS
A549 NSCLC = system: A549 NSCLC
COLO 205 colon = system: COLO 205 colon

Q: What does the source list for `Cc1ccc(C2CC(c3cccc([N+](=O)[O-])c3)=Nc3ccccc3S2)cc1` (stereo not drawn)?
A: TGI (SNB-78 CNS): > 31.6 µM; TGI (UACC-257 melanoma): > 100 µM; TGI (RXF-631 renal): > 100 µM; TGI (SK-MEL-5 melanoma): > 72.2 µM; TGI (HOP-62 NSCLC): > 100 µM; TGI (KM12 colon): 46.1 µM; TGI (NCI-H226 lung): > 100 µM; TGI (NCI-H460 lung): > 100 µM; TGI (HT29 colon): 98.1 µM; TGI (DMS 114 small cell lung): 57.2 µM; TGI (IGROV1 ovarian): > 100 µM; TGI (MALME-3M melanoma): > 100 µM; TGI (HCT-116 colon): 27.1 µM; TGI (SK-MEL-28 melanoma): > 100 µM; TGI (HL-60(TB) leukemia): 47.5 µM; TGI (K-562 leukemia): 77.2 µM; TGI (DLD-1 colon): > 65 µM; TGI (HOP-18 NSCLC): > 100 µM; TGI (SK-OV-3 ovarian): > 100 µM; TGI (CAKI-1 renal): > 100 µM; TGI (HCT-15 colon): > 100 µM; TGI (CCRF-CEM leukemia): > 81.8 µM; TGI (NCI-H522 lung): 64.6 µM; TGI (SF-539 CNS): > 96.3 µM; TGI (M14 melanoma): > 100 µM; TGI (SW-620 colon): 46.2 µM; TGI (786-0 renal): 51.9 µM; TGI (SF-268 CNS): 99.1 µM; TGI (LXFL 529 NSCLC): > 100 µM; TGI (U251 CNS): > 79.5 µM; TGI (SK-MEL-2 melanoma): > 100 µM; TGI (SF-295 CNS): > 100 µM; TGI (HCC-2998 colon): > 100 µM; TGI (M19-MEL melanoma): > 100 µM; TGI (NCI-H23 lung): > 76.4 µM; TGI (OVCAR-3 ovarian): > 74.7 µM; TGI (LOX IMVI melanoma): 51.9 µM; TGI (DMS 273 small cell lung): > 100 µM; TGI (KM20L2 colon): > 100 µM; TGI (TK-10 renal): > 100 µM; TGI (OVCAR-4 ovarian): > 100 µM; TGI (OVCAR-5 ovarian): > 100 µM; TGI (XF 498 CNS): > 100 µM; TGI (UACC-62 melanoma): > 100 µM; TGI (SNB-19 CNS): > 100 µM; TGI (ACHN renal): > 100 µM; TGI (EKVX NSCLC): > 100 µM; TGI (OVCAR-8 ovarian): > 71.4 µM; TGI (HOP-92 NSCLC): 52.2 µM; TGI (RXF 393 renal): > 89.3 µM; TGI (A498 renal): > 100 µM; TGI (UO-31 renal): > 83.6 µM; TGI (SR leukemia): > 100 µM; TGI (SN12C renal): > 90.4 µM; TGI (MOLT-4 leukemia): > 81.8 µM; TGI (RPMI-8226 leukemia): 41.7 µM; TGI (SNB-75 CNS): > 96.1 µM; TGI (A549 NSCLC): > 100 µM; TGI (COLO 205 colon): > 100 µM

Q: How did the TGI (SNB-78 CNS) turn out when `Cc1ccccc1NC(=O)/C(=N/NC(=O)CC#N)C1C(=O)N(c2ccccc2)N=C1N` (stereo not drawn) was run?
A: > 100 µM

Q: What about the TGI (UACC-257 melanoma) of the same compound?
A: > 100 µM

Q: And the TGI (RXF-631 renal)?
A: > 100 µM

Q: What about the TGI (SK-MEL-5 melanoma) of the same compound?
A: > 100 µM

Q: What about the TGI (HOP-62 NSCLC) of the same compound?
A: > 100 µM

Q: And the TGI (KM12 colon)?
A: > 100 µM

Q: And the TGI (NCI-H226 lung)?
A: > 100 µM

Q: What about the TGI (NCI-H460 lung) of the same compound?
A: > 100 µM

Q: And the TGI (HT29 colon)?
A: > 100 µM

Q: What about the TGI (DMS 114 small cell lung) of the same compound?
A: > 100 µM

Q: And the TGI (IGROV1 ovarian)?
A: > 100 µM

Q: What about the TGI (MALME-3M melanoma) of the same compound?
A: > 100 µM

Q: What about the TGI (HCT-116 colon) of the same compound?
A: > 100 µM

Q: What about the TGI (SK-MEL-28 melanoma) of the same compound?
A: > 100 µM

Q: And the TGI (HL-60(TB) leukemia)?
A: > 100 µM

Q: And the TGI (K-562 leukemia)?
A: > 100 µM

Q: And the TGI (DLD-1 colon)?
A: > 100 µM

Q: What about the TGI (HOP-18 NSCLC) of the same compound?
A: > 100 µM

Q: What about the TGI (SK-OV-3 ovarian) of the same compound?
A: > 100 µM

Q: And the TGI (CAKI-1 renal)?
A: > 100 µM

Q: And the TGI (HCT-15 colon)?
A: > 100 µM

Q: What about the TGI (CCRF-CEM leukemia) of the same compound?
A: 88.9 µM

Q: And the TGI (NCI-H522 lung)?
A: > 100 µM

Q: What about the TGI (SF-539 CNS) of the same compound?
A: > 100 µM

Q: And the TGI (M14 melanoma)?
A: > 100 µM

Q: And the TGI (SW-620 colon)?
A: > 100 µM

Q: And the TGI (786-0 renal)?
A: > 100 µM

Q: And the TGI (SF-268 CNS)?
A: > 100 µM

Q: And the TGI (LXFL 529 NSCLC)?
A: > 100 µM

Q: What about the TGI (U251 CNS) of the same compound?
A: > 100 µM

Q: And the TGI (SK-MEL-2 melanoma)?
A: > 100 µM

Q: And the TGI (SF-295 CNS)?
A: > 100 µM

Q: What about the TGI (HCC-2998 colon) of the same compound?
A: > 100 µM

Q: What about the TGI (M19-MEL melanoma) of the same compound?
A: > 100 µM

Q: What about the TGI (NCI-H23 lung) of the same compound?
A: > 100 µM

Q: And the TGI (OVCAR-3 ovarian)?
A: > 100 µM

Q: What about the TGI (LOX IMVI melanoma) of the same compound?
A: > 100 µM

Q: What about the TGI (DMS 273 small cell lung) of the same compound?
A: > 100 µM

Q: And the TGI (KM20L2 colon)?
A: > 100 µM

Q: What about the TGI (TK-10 renal) of the same compound?
A: > 100 µM

Q: What about the TGI (OVCAR-4 ovarian) of the same compound?
A: > 100 µM

Q: And the TGI (OVCAR-5 ovarian)?
A: > 100 µM

Q: And the TGI (XF 498 CNS)?
A: > 100 µM

Q: And the TGI (UACC-62 melanoma)?
A: > 100 µM

Q: What about the TGI (SNB-19 CNS) of the same compound?
A: > 100 µM

Q: What about the TGI (ACHN renal) of the same compound?
A: > 100 µM

Q: What about the TGI (EKVX NSCLC) of the same compound?
A: > 100 µM

Q: And the TGI (OVCAR-8 ovarian)?
A: > 100 µM

Q: And the TGI (HOP-92 NSCLC)?
A: > 100 µM

Q: And the TGI (RXF 393 renal)?
A: > 100 µM

Q: What about the TGI (A498 renal) of the same compound?
A: > 100 µM

Q: And the TGI (UO-31 renal)?
A: > 100 µM

Q: What about the TGI (SR leukemia) of the same compound?
A: > 100 µM

Q: And the TGI (SN12C renal)?
A: > 100 µM

Q: And the TGI (MOLT-4 leukemia)?
A: > 100 µM

Q: What about the TGI (RPMI-8226 leukemia) of the same compound?
A: > 100 µM

Q: What about the TGI (SNB-75 CNS) of the same compound?
A: > 100 µM

Q: And the TGI (A549 NSCLC)?
A: > 100 µM

Q: And the TGI (COLO 205 colon)?
A: > 100 µM
